How the values were obtained:
Ir-LBP [1] = target: T1, Ir-LBP (Ixodes ricinus, UniProt B7ZDG7); assay: Competitive binding: inhibition of 3H-LTB4 binding to Ir-LBP by eicosanoids; details: 2 h; for decrease of the binding of 1 nM 3H-LTB4 to Ir-LBP: competitor at 10 µM
Experimental: The specificity of this binding was then evaluated by incubating Ir-LBP with increasing concentrations of different eicosanoids (LTB4, LTD4, LTC4, LTE4, 12(R)-hydroxyeicosatetraenoic acid (HETE), 15(S)-hydroxyperoxyeicosatetraenoic acid (HpETE), LTA4 methyl ester and 5 (S), 6 (R)-Lipoxin A4) in the presence of a fixed concentration of ^3H-LTB4 (Figure 1B). […] On the other hand, only at a very high concentration of 10 µM were LTD4, LTE4 and 12(R)-HETE able to decrease the binding of 1 nM of ^3H-LTB4 to Ir-LBP by approximately 30%. […] Furthermore, this interaction is reversible. The addition of an excess of cold LTB4 (10 µM) for 2 h displaces the binding between Ir-LBP and 1 nM of ^3H-LTB4 (data not shown). […] This binding may only be displaced by very high concentrations (10 µM versus nM) of eicosanoid analogs.
(§1) The dissociation constant was measured in PBS (pH 7.4) using purified Ir-LBP and an increasing amount of ^3H-LTB4. Non-specific binding was determined by measuring bound radioactivity in the absence of Ir-LBP. Protein precipitation with polyethylene glycol 8000 was used to separate bound from free histamine. Protein-bound radioactivity was determined with a Wallac 1409 scintillation counter. Saturation experiments were analyzed by non-linear regression using the curve fitting program GraphPad Prism® (GraphPad software, San Diego, CA, U.S.A.), B = (Bmax [F])/KD+[F]), where B is the amount of bound ligand at equilibrium, Bmax is the maximum number of binding sites, [F] is the concentration of free ligand and KD is the ligand dissociation constant. Competitive binding assays were performed using purified Ir-LBP with 1 nM of ^3H-LTB4 and an increasing amount of unlabelled competitor for 2 h.

neutrophils [2] = system: neutrophils; parameters: method as in PMID 9261334; details: BLT1 and BLT2 antagonist; cited from earlier work
neutrophils [3] = system: neutrophils; parameters: method as in PMID 12770944, PMID 10588632; details: BLT1 antagonists; cited from earlier work
BLT1 = target: BLT1; parameters: method as in PMID 6097945, PMID 6323613, PMID 2823316; details: read-out: Kd of BLT1 for LTB4; cited from earlier work
BLT2 = target: BLT2; parameters: method as in PMID 10934230; details: read-out: Kd of BLT2 for LTB4; cited from earlier work
Ir-LBP [4] = target: T1, Ir-LBP; assay: Saturation curve and Scatchard analysis for LTB4 binding to Ir-LBP (Figure 1A), ligand as substance; details: saturation curve, 3H-LTB4
Human neutrophils = assay: Neutrophil apoptosis assay (Annexin-V-FITC/PI, flow cytometry); assay type: cell-based; details: LTB4 10^-7 M, 24 h of culture
Experimental: Human blood neutrophils were obtained from buffy coats (Transfusion Center, Liege, Belgium). Neutrophils were separated from mononuclear cells by density centrifugation (Histopaque; Sigma-Aldrich). Contaminating erythrocytes were removed from the neutrophil fraction by hypotonic lysis. Neutrophil purity, determined by counting cytospin preparations stained with Diff-Quick (Dade Behring), was always >95%. Neutrophils were cultured at a density of 2×10^6 cells/ml in RPMI-1640 supplemented with 1% glutamine, 10% FCS, 50 µg/ml streptomycin, and 50 IU/ml penicillin (all from Gibco BRL). Neutrophils were cultured in the absence or presence of 10^−7 M LTB4 (Sigma-Aldrich) and/or 0.2–2 µg/ml Ir-LBP.
Apoptosis was assessed by staining with Annexin-V-FITC and propidium iodide (PI) using the Annexin-V-FLUOS staining kit (Roche), following the manufacturer's recommendations. Flow cytometry analyses were performed with a FACSAria™ (BD Biosciences).

S124T = system: T2, S124T; assay: Saturation binding of ^3H-LTB4 (PBS pH 7.4, PEG 8000 precipitation) to wild-type and mutant Ir-LBP expressed in 293T cells.; details: SD
T2 construct: pCDNA3.1/V5-His-TOPO, expressed in 293T cells
From the text: (§2) In order to determine which amino acids of Ir-LBP are involved in the binding to LTB4, we produced mutants designed on the basis of the dynamic model established in silico. […] For the interaction with the second hydroxyl group, the residue selected to be mutated is Arg 73. The choice was made on this residue because Glu 188 is conserved for all LIRs and should thus not be as specific as Arg 73; furthermore, Arg 53 is bridged to Arg 73 by an aspartic residue from the loop corresponding to the Ω loop in Ra-HBP2. The two hydroxyl groups and the two Arg bridged by Asp Ω could form an interacting network, further stabilizing the binding with LTB4. Two single mutants were therefore produced by replacing Arg 53 with threonine (R53T) and Arg 73 with alanine (R73A). A double mutant (R53T/R73A) was also produced by combining the 2 substitutions of the single mutants. A null mutant was also constructed by replacing serine 124 with threonine (S124T). […] Therefore, the affinity of this mutant for LTB4 should not be affected. These mutants and “wild type” Ir-LBP were expressed in 293T cells, and analyzed to determine their dissociation constant for LTB4.
(§3) Site-directed mutagenesis of Ir-LBP in pCDNA3.1/V5-His-TOPO
(§4) Subconfluent 293T cells in 35-mm diameter wells (Orange Scientific) were transfected with […] plasmid DNA and […] Fugene 6 (Roche Biochemicals) in Dulbecco's modified Eagle's medium (DMEM, Invitrogen) without FCS. The medium was harvested after 72 h. Pooled supernatants were cleared by centrifugation, concentrated 10-fold by filtration on 10000 NMWL membranes (Millipore), ultracentrifuged at 140,000 g before use, and finally stored at −80°C. Concentrated culture supernatants were analyzed by western blotting on a Hybond ECL membrane (GE healthcare) using an anti-V5 primary antibody (Invitrogen), an IgHRP conjugate as secondary antibody and the ECL detection reagent (GE healthcare) according to the manufacturer's instructions. The coding regions of Ir-LBP were amplified by PCR (94°C for 30 s, 56°C for 30 s, 72°C for 1 min.; 30 cycles) using ExTaq DNA Polymerase (Taqara). […]
as §1, with “Protein precipitation with polyethylene glycol 8000 was used to separate bound from free histamine.” left out, “Competitive binding assays were performed using purified Ir-LBP with 1 nM of ^3H-LTB4 and an increasing amount of unlabelled competitor for 2 h.” left out

R73A = system: T3, R73A; assay: as above; details: SD
T3 construct: pCDNA3.1/V5-His-TOPO, expressed in 293T cells
From the text: as §2, §3, §4
as §1, with “Protein precipitation with polyethylene glycol 8000 was used to separate bound from free histamine.” left out, “Competitive binding assays were performed using purified Ir-LBP with 1 nM of ^3H-LTB4 and an increasing amount of unlabelled competitor for 2 h.” left out

R53T/R73A = system: T4, R53T/R73A; assay: as above; details: SD
T4 construct: pCDNA3.1/V5-His-TOPO, expressed in 293T cells
From the text: as §2, §3, §4
as §1, with “Protein precipitation with polyethylene glycol 8000 was used to separate bound from free histamine.” left out, “Competitive binding assays were performed using purified Ir-LBP with 1 nM of ^3H-LTB4 and an increasing amount of unlabelled competitor for 2 h.” left out

R53T = system: T5, R53T; assay: as above; details: SD
T5 construct: pCDNA3.1/V5-His-TOPO, expressed in 293T cells
From the text: as §2, §3, §4
as §1, with “Protein precipitation with polyethylene glycol 8000 was used to separate bound from free histamine.” left out, “Competitive binding assays were performed using purified Ir-LBP with 1 nM of ^3H-LTB4 and an increasing amount of unlabelled competitor for 2 h.” left out

T1 sequence (B7ZDG7 20-200 limits assumed): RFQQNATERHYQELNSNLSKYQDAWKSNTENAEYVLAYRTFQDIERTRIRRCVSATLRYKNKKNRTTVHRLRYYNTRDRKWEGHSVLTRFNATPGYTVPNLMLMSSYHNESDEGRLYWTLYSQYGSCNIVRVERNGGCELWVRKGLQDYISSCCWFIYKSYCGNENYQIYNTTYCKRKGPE

In the case of CCCCC/C=C\C\C=C/C=C/C=C/[C@@H]1O[C@H]1CCCC(=O)OC [LTA4 methyl ester], the “decrease of the binding of 1 nM 3H-LTB4 to Ir-LBP” value (“decrease” for short) (Ir-LBP [1]) is reported as “unable to compete”.

In the case of COc1ccc(/C=C/CCCCOc2cccc(OCCCCC(=O)O)c2CCC(=O)O)cc1 [ONO-4057], the “inhibition of endothelial transmigration of neutrophils” value (neutrophils [2]) is listed as “totally inhibits”.

For CCCCC/C=C\C[C@@H](O)/C=C/C=C\C/C=C\CCCC(=O)O [12(R)-HETE, 12(R)-hydroxyeicosatetraenoic acid], the “decrease” value (Ir-LBP [1]) was “approximately 30%”.

In the case of CCCCC[C@H](O)/C=C/C=C\C=C\C=C\[C@@H](O)[C@@H](O)CCCC(=O)O [5(S), 6(R)-Lipoxin A4, 5 (S), 6 (R)-Lipoxin A4], the “decrease” value (Ir-LBP [1]) is reported as “unable to compete”.

In the case of O=C(O)C1(c2ccc3c(c2)OC[C@H](Cc2ccc(-c4ccccc4)cc2)[C@H]3O)CCCC1 [CP-105696], the “inhibition of the apoptosis delay induced by LTB4” value (neutrophils [3]) is listed as “capable of inhibiting”.

With CCCCC/C=C\C\C=C/C=C/C=C/[C@@H](SC[C@H](NC(=O)CC[C@H](N)C(=O)O)C(=O)NCC(=O)O)[C@@H](O)CCCC(=O)O [LTC4] the “decrease” value (Ir-LBP [1]) was “unable to compete”.

With CCCCC/C=C\C\C=C/C=C/C=C/[C@@H](SC[C@H](N)C(=O)O)[C@@H](O)CCCC(=O)O [LTE4] the “decrease” value (Ir-LBP [1]) was “approximately 30%”.

For COc1ccc(CCCCCCCCOc2ccc(C[S+]([O-])c3cccc(N)c3)nc2/C=C/C(=O)[O-])cc1.[Li+] (stereo not shown) [SB201146], the “inhibition of the apoptosis delay induced by LTB4” value (neutrophils [3]) is listed as “capable of inhibiting”.

For CCCCC/C=C\C[C@@H](O)/C=C/C=C/C=C\[C@@H](O)CCCC(=O)O [LTB4, Leukotriene B4], the Kd (BLT1) is given as about 1 nM, the Kd (BLT2) is given as about 23 nM and the Kd (Ir-LBP [4]) is given as 0.59 nM. For the same compound, the “apoptosis levels versus untreated controls” value (Human neutrophils) was “significantly lower” and the IC50 (Ir-LBP [1]; 1 nM 3H-LTB4, unlabelled competitor) was 5.7 nM.

CCCCC/C=C\C[C@@H](O)/C=C/C=C/C=C\[C@@H](O)CCCC(=O)O [^3H-LTB4, tritiated leukotriene B4] gave a Kd (S124T) of 0.45 nM, a Kd (R73A) of 0.87 nM and a Kd (R53T/R73A) of 4.23 nM. The Kd (R53T) was 0.43 nM.

In the case of CCCCC[C@@H](/C=C/C=C\C/C=C\C/C=C\CCCC(=O)O)OO [15(S)-HpETE, 15(S)-hydroxyperoxyeicosatetraenoic acid], the “decrease” value (Ir-LBP [1]) is reported as “unable to compete”.

In the case of CCCCC/C=C\C\C=C/C=C/C=C/[C@@H](SC[C@H](N)C(=O)NCC(=O)O)[C@@H](O)CCCC(=O)O [LTD4], the “decrease” value (Ir-LBP [1]) is reported as “approximately 30%”.
